Experimental findings from ChEMBL document CHEMBL1122369, “Autoxidation of the antitumor drug 9-hydroxyellipticine and its derivatives” (1983) are described below.

The test deals with L1210. The test is described as follows: Growth inhibitory activity against L1210 lymphocytic leukemia cells. The settings on record: Mus musculus, read-out: ID50 (the source's name). The format is functional.
In the case of `Cc1c2cc[n+](C)cc2c(C)c2c1[nH]c1ccc(O)cc12` [ELLIPTINIUM], the IC50 is 50 nM.
To `Cc1c2ccncc2c(C)c2c1[nH]c1ccccc12` [ELLIPTECINE] belongs 990 nM.
To `Cc1c2c[n+](C)ccc2c(C)c2c1c1cc(O)ccc1n2C` belongs 41 nM; to `Cc1c2ccncc2c(C)c2c1[nH]c1ccc(O)cc12`, 15 nM; to `Cc1c2ccncc2c(C)c2c1[nH]c1c(O)cccc12`, 5440 nM.
